Tested on: optic nerve (retinal ganglion cell axons)
Experiment: optic nerve transection after intravitreal injection, neurofilament Western blot
Assay type: in vivo, rat
Conditions: 5 μl of 100 mM intravitreal, 24 hours before transection; 4 days after transection
Protocol: FIG. 9 illustrates optic nerve transection after intravitreal injection of NAD biosynthetic substrates NAD, NMN, NmR, or Nam was injected into intravitreal compartment of left rat eye and allowed to incorporate retinal ganglion cells for 24 hours after which, left optic nerve was transected by eye enucleation and right and left optic nerves were collected at 4 days after transection and analyzed by Western blotting in which optic nerves transected from […] without any treatment prior to axotomy were used for negative control; showing in the figure, the quantitative analysis data of percentage of remaining neurofilament immunoreactivity from transected optic nerve relative to non-transected±S.D.
Administration of NAD biosynthetic substrates and optic Nerve transection. Nam, NMN, NmR, or NAD was dissolved in PBS at the concentration of 100 mM or 1 M. Each of 5 μl solution was injected into left intravitreal component under the anesthesia at a rate of […]. The left optic nerve was transected at 24 hours after intravitreal injection and optic nerve was recovered at indicated time. Optic nerve tissue was homogenized in 100 μl of a buffer containing 100 mM tris-HCl (pH 6.8), 1% SDS, and 1 mM DTT. Fifty μg of protein for each sample was analyzed by the Western blotting using anti-neurofilament antibody 2H3 (Developmental Studies Hybridoma Center) and peroxidase-conjugated secondary antibody (Jackson ImmunoResearch). The degeneration rate was calculated from the ratio of the neurofilament immunoreactivity of transected vs. contralateral nerves.
Transection of optic nerve is an in vivo model which can be used to investigate mechanisms leading to Wallerian degeneration and following retinal ganglion cell (RGC) death observed in human diseases such as glaucoma. In the C57BL/Wlds mouse strain, optic nerve degeneration during Wallerian degeneration after axotomy is dramatically slowed. In addition, intravitreal injection is used for screening of compounds that protect RGC axon from degeneration in vivo and thus we can asses the axon protective effect of each NAD biosynthetic substrates in vive by intraocular injection of compounds including NAD, NMN, NmR, and Nam. From in vitro Wallerian degeneration assay, 1 mM of NAD, NMN, and NmR in the culture media is enough to protect axon from degeneration. We initially injected 5 μl of 100 mM or 1 M NAD solution into left intravitreal compartment. After 24 hours incubation, left optic nerve was transected and control (right) and axotomized (left) optic nerve were collected at 3, 4, and 5 days after transection. Neurofilament immunoreactivity from the axotomized optic nerve was measured and normalized against the value obtained from the right side of the optic nerve.

## NC(=O)c1cccnc1 [Nam, nicotinamide]
  neurofilament immunoreactivity of axotomized optic nerve, of non-axotomized optic nerve: did not show any difference from the control animals

From patent US20160367497A1, “METHODS AND COMPOSITIONS FOR TREATING NEUROPATHIES” (Washington University, priority 2007, published 2016)
